Results from patent US6605628B1, “Method of using 5-(arysulfonyl)-, 5-(arylsulfanyl)-and 5-(arylsulfanyl)thiazolidine-2,4-diones for inhibition of farnesyl-protein transferase” (Wyeth Holdings Corporation, priority 2001, dated 2003).

Assays:
FPTase [1] = target: T1, FPTase (Homo sapiens, UniProt P49354+P49356); assay: in vitro FTase Inhibition Assay, H-Ras used as substrate for farnesylation; type: biochemical; settings: Table I, read-out: IC50 H-Ras*
Experimental: (§1) Enzyme test procedure: FPTase inhibition in vitro assay was performed according to James, G. L., Brown, M. S., and Goldstein, J. L., Methods in Enzymology, 1995, 255, 38-46; and Garcia, M. A., et al., J. Biol. Chem., 1993, 268, 18415-18420.
(§2) Materials—Purified FPTase (Moomaw, J. F. and Casey, P. J., J. Biol. Chem., 1992, 267, 17438-17443), purified His6-Ras, inhibitor compounds at 10 mg/ml or 10 mM in 100% DMSO, ^3H-FPP (50,000 dpm/pmol) Amersham, TCA/SDS (6%/2%), TCA (6%), Glass fiber filters ([…]), vacuum manifold or 96 well filtration plates.
(§3) Methods—1. Dilute FPTase inhibitors from stock solutions to 2.5× in 2.5% DMSO, 10 mM DTT, 0.5% octyl-B-glucoside. 2. Solution #1 is added to FPTase reaction in a volume of […]. 3. Standard reaction mix, […], contains 50 mM Tris (7.5), 10 mM ZnCl2, 3 mM MgCl2, 20 mM KCl, 5 mM DTT, 0.2% octyl-B-glucoside, 1% DMSO, […] His6-Ras, 10 ng FPTase, and various concentrations of FPTase inhibitors. 4. Incubate for 30-90 min at 25° C. 5. Stop reactions with TCA/SDS (6%/2%), hold at 4° C. for 45-60 min. 6. Filter by manifold or 96 well plate, wash filter 3-5× with TCA (6%). 7. Add scintillant to filters, measure ^3H-FPP incorporation into Ras protein.
(§4) Analysis of Results—Percent inhibition by test compounds is determined by the following:
(§5) (cpm from precipitated Ras with test compounds)−(background cpm)×100=% inhibition.
(§6) (cpm from precipitated Ras without test compounds)−(background cpm)

FPTase [2] = target: T1, FPTase; assay: in vitro FTase Inhibition Assay, K-Ras used as substrate for farnesylation; type: biochemical; settings: Table I
Experimental: as §1, §2, §3, §4, §5, §6

[3] = system: K-ras dependent human colon carcinoma (LoVo); assay: in vivo effects against K-ras dependent human colon carcinoma (LoVo); settings: 1 mg/kg per dose IP, days 5, 9 and 13; control 0.5% Methocel 0.4% Tween 80
Description: […] For the compound of example 114, when tested against a K-ras dependent human colon carcinoma (LoVo), the following results were obtained (Table III):

Q: For `COc1ccc(S(=O)(=O)C2(CCCC#Cc3cc(NC(=O)Oc4ccc(Cl)cc4)ccc3C)SC(=O)NC2=O)cc1` (stereo not drawn) [Example 177, (3-{5-[5-(4-Methoxybenzenesulfonyl)-2,4-dioxothiazolidin-5-yl]pent-1-ynyl}-4-methylphenyl)carbamic Acid 4-Chloro-phenyl Ester], which IC50 (FPTase [1]) is on record?
A: 0.011 to 0.032 µM

Q: And the IC50 (FPTase [2])?
A: 0.086 to 0.1 µM

Q: `COC(=O)Nc1ccc(C)c(C#CCCCC2(S(=O)(=O)c3ccc(OC)cc3)SC(=O)NC2=O)c1` (stereo not drawn) [Example 178, (3-{5-[5-(4-Methoxybenzenesulfonyl)-2,4-dioxothiazolidin-5-yl]pent-1-ynyl}-4-methylphenyl)carbamic Acid Methyl Ester] was tested. Which IC50 (FPTase [1]) did it give?
A: 0.017 to 0.032 µM

Q: And the IC50 (FPTase [2])?
A: 0.01 µM

Q: What does the source list for `COc1ccc(S(=O)(=O)C2(CCCC#Cc3cc(NC(=O)OC(C)C)ccc3C)SC(=O)NC2=O)cc1` (stereo not drawn) [Example 179, (3-(5-[5-(4-Methoxybenzenesulfonyl)-2,4-dioxothiazolidin-5-yl]pent-1-ynyl}-4-methylphenyl)carbamic Acid Isopropyl Ester]?
A: IC50 (FPTase [1]): 0.002 to 0.032 µM; IC50 (FPTase [2]): 0.005 to 0.07 µM

Q: Which results are given for `COc1ccc(S(=O)(=O)C2(CCCC#Cc3cc(NC(=O)OCC(C)(C)C)ccc3C)SC(=O)NC2=O)cc1` (stereo not drawn) [Example 180, (3-(5-[5-(4-Methoxybenzenesulfonyl)-2,4-dixothiazolidin-5-yl]pent-1-ynyl}-4-methylphenyl)carbamic Acid Neopentyl Ester]?
A: IC50 (FPTase [1]): 0.002 to 0.032 µM; IC50 (FPTase [2]): 0.007 to 0.09 µM

Q: `CCCCOC(=O)Nc1ccc(C)c(C#CCCCC2(S(=O)(=O)c3ccc(OC)cc3)SC(=O)NC2=O)c1` (stereo not drawn) [Example 181, (3-(5-[5-(4-Methoxybenzenesulfonyl)-2,4-dioxothiazolidin-5-yl]pent-1-ynyl}-4-methylphenyl)carbamic Acid Butyl Ester] was tested. Which IC50 (FPTase [1]) did it give?
A: 0.01 to 0.032 µM

Q: What about the IC50 (FPTase [2]) of the same molecule?
A: 0.1 to 0.13 µM

Q: Which IC50 (FPTase [1]) does the source give for `COc1ccc(S(=O)(=O)C2(CCCC#Cc3cc(NC(=O)OCC(C)C)ccc3C)SC(=O)NC2=O)cc1` (stereo not drawn) [Example 182, (3-{5-(5-(4-Methoxybenzenesulfonyl)-2 ,4-dioxothiazolidin-5-yl]pent-1-ynyl}-4-methylphenyl)carbamic Acid Isobutyl] here?
A: 0.005 to 0.01 µM

Q: And the IC50 (FPTase [2])?
A: 0.032 to 0.056 µM

Q: How did the IC50 (FPTase [1]) turn out when `COc1ccc(S(=O)(=O)C2(CCCC#Cc3cc(NC(=O)Nc4ccc(Cl)cc4)ccc3C)SC(=O)NC2=O)cc1` (stereo not drawn) [Example 189, N-(4-Chlorophenyl)-N′-[3-(5-{5-[(4-methoxyphenyl)sulfonyl]-2,4-dioxo-1,3-thiazolidin-5-yl}-1-pentynyl)-4-methylphenyl]urea] was run?
A: 0.1 µM

Q: What about the IC50 (FPTase [2]) of the same molecule?
A: 1.2 µM

Q: Which results are given for `Cc1ccc(S(=O)(=O)C2(CCC/C=C\c3ccc(Cl)cc3)SC(=O)NC2=O)cc1` (stereo not drawn) [Example 217, 5-[(4Z)-5-(4-Chloro-phenyl)pent-4-enyl]-5-(toluene-4-sulfonyl)-thiazolidine-2,4-dione]?
A: IC50 (FPTase [1]): 0.1 µM; IC50 (FPTase [2]): 8.5 µM

Q: What does the source list for `COc1ccc(S(=O)(=O)C2(CCCC#Cc3cccc(N)c3)SC(=O)NC2=O)cc1` (stereo not drawn) [Example 220, 5-[5-(3-Aminophenyl)pent-4-ynyl]-5-(4-methoxybenzenesulfonyl)-thiazolidine-2,4-dione]?
A: IC50 (FPTase [1]): 0.09 µM; IC50 (FPTase [2]): 3 µM

Q: How did the IC50 (FPTase [1]) turn out when `COc1ccc(S(=O)(=O)C2(CCCC#Cc3cc(NC(=O)OCc4ccccc4)ccc3C)SC(=O)N(C(=O)OCc3ccccc3)C2=O)cc1` (stereo not drawn) [Example 226, Benzyl 5-[5-(5-{[(benzyloxy)carbonyl]-amino}-2-methylphenyl)pent-4-ynyl]-5-[(4-methoxyphenyl)sulfonyl]-2,4-dioxo-1,3-thiazolidine-3-carboxylate] was run?
A: 0.03 to 0.05 µM

Q: What about the IC50 (FPTase [2]) of the same molecule?
A: 0.1 to 3.2 µM

Q: For `COc1ccc(S(=O)(=O)C2(CCCC#Cc3cc(NC(=O)OCc4ccc([N+](=O)[O-])cc4)ccc3C)SC(=O)N(C(=O)OCc3ccc([N+](=O)[O-])cc3)C2=O)cc1` (stereo not drawn) [Example 227, 4-Nitrobenzyl 5-[(4-methoxyphenyl)sulfonyl]-5-{5-[2-methyl-5-({[(4-nitrobenzyl)oxy]carbonyl}amino)phenyl]pent-4-ynyl}-2,4-dioxo-1,3-thiazolidine-3-carboxylate], which IC50 (FPTase [1]) is on record?
A: 0.007 to 0.01 µM

Q: And the IC50 (FPTase [2])?
A: 0.21 to 0.4 µM

Q: `COC(=O)Nc1ccc(C)c(C#CCCCC2(S(=O)(=O)c3ccc(OC)cc3)SC(=O)N(C(=O)OC)C2=O)c1` (stereo not drawn) [Example 228, Methyl 5-(5-{5-[(methoxycarbonyl)amino]-2-methylphenyl}pent-4-ynyl)-5-[(4-methoxyphenyl)sulfonyl]-2,4-dioxo-1,3-thiazolidine-3-carboxylate] was tested. Which IC50 (FPTase [1]) did it give?
A: 0.004 to 0.07 µM

Q: And the IC50 (FPTase [2])?
A: 0.23 to 1 µM

Q: For `COc1ccc(S(=O)(=O)C2(CCCC#Cc3cc(NC(=O)OC(C)C)ccc3C)SC(=O)N(C(=O)OC(C)C)C2=O)cc1` (stereo not drawn) [Example 229, Isopropyl 5-(5-{5-[(isopropoxycarbonyl)-amino]-2-methylphenyl}pent-4-ynyl)-5-[(4-methoxyphenyl)sulfonyl]-2,4-dioxo-1,3-thiazolidine-3-carboxylate], which IC50 (FPTase [1]) is on record?
A: 0.006 to 0.02 µM

Q: What about the IC50 (FPTase [2]) of the same molecule?
A: 0.1 to 0.7 µM

Q: What does the source list for `COc1ccc(S(=O)(=O)C2(CCCC#Cc3cc(NC(=O)OCC(C)(C)C)ccc3C)SC(=O)N(C(=O)OCC(C)(C)C)C2=O)cc1` (stereo not drawn) [Example 230, Neopentyl 5-[(4-methoxyphenyl)sulfonyl]-5-[5-(2-methyl-5-{[(neopentyloxy)carbonyl]-amino}phenyl)pent-4-ynyl]-2,4-dioxo-1,3-thiazolidine-3-carboxylate]?
A: IC50 (FPTase [1]): 0.003 to 0.0035 µM; IC50 (FPTase [2]): 0.02 to 0.5 µM

Q: How did the IC50 (FPTase [1]) turn out when `CCCCOC(=O)Nc1ccc(C)c(C#CCCCC2(S(=O)(=O)c3ccc(OC)cc3)SC(=O)N(C(=O)OCCCC)C2=O)c1` (stereo not drawn) [Example 231, Butyl 5-(5-{5-[(butoxycarbonyl)amino]-2-methylphenyl}pent-4-ynyl)-5-[(4-methoxy-phenyl)sulfonyl]-2,4-dioxo-1,3-thiazolidine-3-carboxylate] was run?
A: 0.01 to 0.021 µM

Q: What about the IC50 (FPTase [2]) of the same molecule?
A: 0.1 to 1 µM

Q: With `COc1ccc(S(=O)(=O)C2(CCCC#Cc3cc(NC(=O)OCC(C)C)ccc3C)SC(=O)N(C(=O)OCC(C)C)C2=O)cc1` (stereo not drawn) [Example 232, Isobutyl 5-(5-{5-[(isobutoxycarbonyl)-amino]-2-methylphenyl}pent-4-ynyl)-5-[(4-methoxyphenyl)sulfonyl]-2,4-dioxo-1,3-thiazolidine-3-carboxylate] as the molecule, how does the IC50 (FPTase [1]) read?
A: 0.005 to 0.01 µM

Q: What about the IC50 (FPTase [2]) of the same molecule?
A: 0.04 to 0.64 µM

Q: Which “% T/C, Day8” value [3] does the source give for `CC[C@]1(O)C[C@H]2CN(CCc3c([nH]c4ccccc34)[C@@](C(=O)OC)(c3cc4c(cc3OC)N(C=O)[C@H]3[C@@](O)(C(=O)OC)[C@H](OC(C)=O)[C@]5(CC)C=CCN6CC[C@]43[C@@H]65)C2)C1` [Vincristine, reference compound] here?
A: 16%

Q: And the “% T/C, Day 15” value [3]?
A: 8%

Q: What about the “% T/C, Day 22” value [3] of the same molecule?
A: 14%

Q: And the “% T/C, Day 29” value [3]?
A: 19%

Q: And the “% T/C, Day 36” value [3]?
A: 15%

Q: What about the “Mean Tumor Weight, Day8” value [3] of the same molecule?
A: 14 mg

Q: What about the “Mean Tumor Weight, Day 15” value [3] of the same molecule?
A: 24 mg

Q: And the “Mean Tumor Weight, Day 22” value [3]?
A: 84 mg

Q: What about the “Mean Tumor Weight, Day 29” value [3] of the same molecule?
A: 139 mg

Q: And the “Mean Tumor Weight, Day 36” value [3]?
A: 194 mg
